{
  "source": "patent US12514267B2",
  "about": "“Oligosaccharide compositions for use as animal feed and methods of producing thereof” (DSM Nutritional Products, LLC, priority 2015, dated 2026)",
  "tested_on": "nursery pigs",
  "assay": "Growth performance of nursery pigs: 0-42d BWG, ADG, ADFI, FCR, with and without Mecadox (Examples 34/35)",
  "assay_type": "in vivo",
  "protocol": "Pigs: Approximately 3,240 pigs were placed in three rooms at a nursery farm with 27 pigs per pen and 15 pens per treatment using a randomized complete block design (a total of 8 treatments across 40 pens in each of 3 rooms). All pens were balanced with 14 gilts and 13 barrows. At weaning, weight, age and sow farm source were recorded. At weaning, pigs were placed with the same number of pigs from each sow farm per pen.\nAllotment: Prior to allotment and each weighing event, standard weights were placed on each corner of the scale to ensure that the scale was correctly calibrated. At placement, the average weight of the pigs in each pen were determined and the data was provided as soon as possible for treatment allotment. At weaning, pens were ranked by average weight and weight blocks and pens were assigned to the ranked weights. Treatments were then randomly assigned within weight blocks. When the treatment assignments were done, pen assignments were provided also as soon as possible, and dietary treatments information was entered into the feeding system. Pigs were granted free access to feed and water throughout the trial.\nSchedule: At arrival, the pigs were allotted to pens. A common pelleted diet was fed to all pigs for 7 days. This diet contained 55 ppm of Mecadox (50 g/ton). Dietary treatments were fed from day 7 to the end of the nursery phase (approximately 55 lb). Pens were allotted to dietary treatments on day 7. Diets were fed in two phases with the first phase from day 7 to 21 after weaning and the second phase from day 21 to the end of the nursery phase (day 21 to 42 after weaning).\nTreatments: Dietary treatments were randomly assigned to 40 pens in each of 3 rooms for 5 replications per room and 15 replications total. The 8 treatments were structured as a 2×4 factorial with two diet types (with and without antibiotic; 55 ppm of Mecadox) and four levels of gluco-oligosaccharide (0, 200, 400 or 600 ppm). The gluco-oligosaccharides were prepared according to the procedures set forth in Examples above. The gluco-oligosaccharides were provided on a corn meal carrier, as described in Example 18, such that the 600 ppm dose was obtained with a 0.25% final diet inclusion rate (5 lb premix per ton final feed). All diets contained the same growth promoting levels of Cu and Zn at 200 ppm Cu and 2,000 ppm Zn, in the phase 2 diets and 200 ppm Cu in the phase 3 diet. The diets containing 0 and 0.25% of the premix containing the gluco-oligosaccharides were blended to form the intermediate treatments.\nDiet Preparation: Diets were fed in meal form. The four diets required were the control diets for each diet type and the diets containing 0.25% gluco-oligosaccharide premix. The actual oligosaccharide levels in the test were 0, 200, 400, and 600 ppm with a carrier used such that the premix at 0.25% (5 lb/ton) will provide 600 ppm oligosaccharide.\nLive Animal Data Collection: Pigs were weighed, counted and feed disappearance determined every 7 days during the experiment. Prior to each weighing event standard weights were placed on each corner of the scale to ensure proper calibration of the scale. Pig inventory, weight, removal and feed intake data were recorded and maintained throughout the trial. Data were collected on the standard data collection spreadsheet.\nStatistical analysis: Pens were randomly allotted to treatments using body weight as a blocking factor. Weight block was added to the model as a random effect. Main effects and interaction between diet type and gluco-oligosaccharide level were determined. Data was analyzed for linear and quadratic effect of gluco-oligosaccharide levels.\nThe BWG benefit, ADG benefit, ADFI benefit, and FCR benefit were calculated for 0-42 days by taking the ratio of the respective values with respect to their corresponding controls and performing linear regression to determine the dose-effect of the gluco-oligosaccharide, resulting in the following regression equations set forth in Table 12 below. […]",
  "key": {"[1]": {"conditions": "0-42d, Mecadox 55 ppm, Oligo 0 ppm"}, "[2]": {"conditions": "0-42d, from regression equations, antibiotic growth promoter alone"}, "[3]": {"conditions": "nursery pigs, vs control, Mecadox 55 ppm, gluco-oligosaccharide 600 ppm without antibiotic (from regression)"}},
  "data": [
    {"compound": "COC(=O)N/N=C/c1c[n+]([O-])c2ccccc2[n+]1[O-]", "note": "[Mecadox]", "values": [
      {"measurement": "ADFI", "setting": "[1]", "result": 1.37, "unit": "lbs/day"},
      {"measurement": "ADG", "setting": "[1]", "result": 0.93, "unit": "lbs/day"},
      {"measurement": "BWG", "setting": "[1]", "result": 40.69, "unit": "lbs"},
      {"measurement": "FCR", "setting": "[1]", "result": 1.47, "unit": "lbs/lbs"},
      {"measurement": "ADFI Benefit", "setting": "[2]", "result": 2.4, "unit": "%"},
      {"measurement": "ADG Benefit", "setting": "[2]", "result": 3.2, "unit": "%"},
      {"measurement": "BWG Benefit", "setting": "[2]", "result": 2.5, "unit": "%"},
      {"measurement": "FCR Benefit", "setting": "[2]", "result": "−0.2", "unit": "%"},
      {"measurement": "0-42d FCR", "setting": "nursery pigs, vs control, Mecadox 55 ppm, gluco-oligosaccharide 600 ppm", "result": "did not improve"},
      {"measurement": "improved 0-42d ADG", "setting": "[3]", "result": 3.2, "unit": "%"},
      {"measurement": "improved 0-42d ADGI", "setting": "[3]", "result": 2.4, "unit": "%"},
      {"measurement": "improved 0-42d BWG", "setting": "[3]", "result": 2.5, "unit": "%"}
    ]}
  ]
}
